Reference: patent US20120064062A1 (priority 2010, published 2012)
Where a SMILES comes first, the peptide text is derived from it. [ ]: non-standard residue; d: D form. The star is where a group is joined. Sta = CC(C)C[C@H](N)[C@@H](O)CC(=O)O; Isovaleryl = CC(C)CC(=O)*

Tests used:
[1] = molecular target: Y. pestis Pla (Yersinia pestis, UniProt P17811); test: biochemical
[2] = molecular target: T1, Pla (Yersinia pestis, UniProt P17811); test: biochemical
[3] = molecular target: Plasmin (Homo sapiens, UniProt P00747); test: Plasmin inhibitory activity counter-screen (coupling enzyme); format: biochemical; settings: z-score = number of standard deviations the enzymatic activity falls below the DMSO non-inhibitory control
[4] = molecular target: T2, tissue plasminogen activator (tPA) (Homo sapiens, UniProt P00750); test: tPA plasminogen activator counter-screen (Glu-Plg, S2251); format: biochemical; settings: z-score = number of standard deviations below DMSO control
T2 construct: purchased US Biological, Inc. T5600-30

[5] = molecular target: T3, cathepsin E (Homo sapiens, UniProt P14091); test: Cathepsin E fluorometric counter-screen; format: biochemical; settings: z-score = number of standard deviations below DMSO control
T3 construct: purchased R&D Systems 1294-AS-010
T3 sequence (P14091 54-396): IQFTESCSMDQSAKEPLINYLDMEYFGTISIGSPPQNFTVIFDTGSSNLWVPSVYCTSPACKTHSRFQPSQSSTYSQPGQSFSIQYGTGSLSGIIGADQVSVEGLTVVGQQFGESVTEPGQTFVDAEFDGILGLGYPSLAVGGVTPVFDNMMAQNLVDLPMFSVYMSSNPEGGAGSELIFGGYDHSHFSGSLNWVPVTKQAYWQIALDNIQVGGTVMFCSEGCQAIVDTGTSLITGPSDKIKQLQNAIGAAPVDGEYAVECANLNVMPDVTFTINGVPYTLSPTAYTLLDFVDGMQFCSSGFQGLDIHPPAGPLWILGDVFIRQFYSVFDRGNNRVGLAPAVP

[6] = Cytotoxicity to HeLa cells in serum-free culture (MTS); settings: human
[7] = molecular target: T4, urokinase type plasminogen activator (uPA) (Homo sapiens, UniProt P00749); test: uPA plasminogen activator counter-screen (Glu-Plg, S2251); format: biochemical; settings: z-score = number of standard deviations below DMSO control
T4 construct: purchased US Biological, Inc. U2605-01

[8] = molecular target: T5, HIV-1 protease (Human immunodeficiency virus type 1 group M subtype B, UniProt P04585); test: HIV-1 protease counter-screen; format: biochemical; settings: % of the enzymatic activity of a DMSO non-inhibitory control
T5 construct: Plasmin, tPA, uPA, Cathepsin D, Cathepsin E, and HIV-1 protease

[9] = molecular target: T6, cathepsin D (Homo sapiens, UniProt P07339); test: Cathepsin D fluorometric counter-screen; format: biochemical; settings: z-score = number of standard deviations below DMSO control
T6 construct: purchased R&D Systems 1014-AS-010

[10] = molecular target: T1, Pla; format: biochemical
Target sequence in this assay (P17811 21-312 limits assumed): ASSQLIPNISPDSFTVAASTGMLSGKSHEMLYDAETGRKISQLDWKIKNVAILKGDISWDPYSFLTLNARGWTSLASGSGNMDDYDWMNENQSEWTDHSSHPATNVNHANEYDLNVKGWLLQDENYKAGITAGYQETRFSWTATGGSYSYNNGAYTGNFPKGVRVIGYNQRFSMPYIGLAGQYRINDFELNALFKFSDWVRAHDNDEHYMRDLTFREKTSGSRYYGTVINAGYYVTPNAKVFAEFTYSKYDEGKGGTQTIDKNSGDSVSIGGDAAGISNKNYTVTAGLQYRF

T2 sequence (P00750 36-562): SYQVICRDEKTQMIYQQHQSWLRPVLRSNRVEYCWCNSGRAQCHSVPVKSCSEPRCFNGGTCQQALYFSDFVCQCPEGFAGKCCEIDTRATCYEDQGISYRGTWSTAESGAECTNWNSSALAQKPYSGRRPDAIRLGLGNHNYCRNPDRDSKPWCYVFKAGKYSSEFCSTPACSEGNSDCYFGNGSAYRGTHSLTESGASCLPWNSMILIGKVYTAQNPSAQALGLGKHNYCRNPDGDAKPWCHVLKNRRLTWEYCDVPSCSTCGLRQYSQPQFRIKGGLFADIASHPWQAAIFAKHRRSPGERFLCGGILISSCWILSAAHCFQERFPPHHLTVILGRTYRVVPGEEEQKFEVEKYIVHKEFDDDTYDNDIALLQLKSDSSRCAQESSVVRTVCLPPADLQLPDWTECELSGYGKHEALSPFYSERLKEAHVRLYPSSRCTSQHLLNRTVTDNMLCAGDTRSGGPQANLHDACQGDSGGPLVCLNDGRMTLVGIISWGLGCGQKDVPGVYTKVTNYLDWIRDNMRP
Chain of Y. pestis Pla (P17811 21-312 limits assumed): as the sequence (P17811 21-312 limits assumed) above
Chain of Plasmin (P00747 581-810 limits assumed): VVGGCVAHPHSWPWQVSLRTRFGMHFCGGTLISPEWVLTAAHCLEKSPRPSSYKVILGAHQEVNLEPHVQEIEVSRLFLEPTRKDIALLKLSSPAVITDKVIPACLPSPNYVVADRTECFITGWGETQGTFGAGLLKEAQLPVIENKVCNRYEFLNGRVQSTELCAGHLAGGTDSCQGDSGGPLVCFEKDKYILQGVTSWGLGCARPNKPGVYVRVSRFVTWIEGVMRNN
Chain of Plasmin (P00747 97-580 partner limits assumed): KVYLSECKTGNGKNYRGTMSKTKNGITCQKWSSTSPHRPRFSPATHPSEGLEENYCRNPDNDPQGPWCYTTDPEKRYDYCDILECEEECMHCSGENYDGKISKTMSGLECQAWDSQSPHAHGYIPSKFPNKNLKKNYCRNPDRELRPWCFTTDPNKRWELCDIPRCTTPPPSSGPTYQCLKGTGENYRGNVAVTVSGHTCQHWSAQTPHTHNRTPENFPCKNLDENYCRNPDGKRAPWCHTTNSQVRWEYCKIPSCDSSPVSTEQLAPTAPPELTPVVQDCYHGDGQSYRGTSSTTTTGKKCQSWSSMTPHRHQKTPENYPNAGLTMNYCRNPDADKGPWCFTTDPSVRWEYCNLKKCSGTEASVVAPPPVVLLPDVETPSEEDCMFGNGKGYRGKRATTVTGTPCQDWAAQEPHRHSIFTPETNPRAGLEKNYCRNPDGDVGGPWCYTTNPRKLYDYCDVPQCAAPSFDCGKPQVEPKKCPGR
T6 sequence (P07339 65-412): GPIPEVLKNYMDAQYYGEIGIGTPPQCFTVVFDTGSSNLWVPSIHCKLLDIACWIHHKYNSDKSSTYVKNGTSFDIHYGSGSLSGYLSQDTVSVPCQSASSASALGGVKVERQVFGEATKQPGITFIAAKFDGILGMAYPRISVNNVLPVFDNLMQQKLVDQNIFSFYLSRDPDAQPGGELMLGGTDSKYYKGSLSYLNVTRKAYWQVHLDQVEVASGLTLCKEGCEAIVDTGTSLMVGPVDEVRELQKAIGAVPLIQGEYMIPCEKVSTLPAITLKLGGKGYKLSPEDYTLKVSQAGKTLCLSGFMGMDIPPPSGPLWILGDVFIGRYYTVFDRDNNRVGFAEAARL

COC(=O)c1c(C)oc2ccc(N(C(=O)c3ccncc3)S(=O)(=O)c3ccc(F)cc3C)cc12 [A]
IC50 [1]: 6.6 µM

NC(N)=NCCC[C@H](N)C(=O)NCC(=O)O [Arg-Gly] (H-Arg-Gly-OH)
Ki [2]: 5200 µM

NCCCC[C@H](NC(=O)[C@@H](N)CCCN=C(N)N)C(=O)O [Arg-Lys] (H-Arg-Lys-OH)
Ki [2]: 900 µM

CC(C)[C@H](NC(=O)[C@@H](N)CCCNC(=N)N)C(=O)O [Arg-Val] (H-Arg-Val-OH; N-terminus and C-terminus assumed)
Ki [2]: 4800 µM

O=S(=O)(Nc1ccccc1-c1ccccc1)c1ccc(Br)s1 [B]
IC50 [1]: 8.9 µM

COc1ccc(S(=O)(=O)Nc2ccccc2Oc2ccccc2)cc1C [C]
IC50 [1]: 22 µM

O=S(=O)(Nc1cc(Cl)ccc1Oc1ccccc1)c1ccc2c(c1)OCCO2 [Compound 1]
Plasmin Z-Score at 50 μM [3]: 4.9
tPA Z-Score at 50 μM [4]: −0.3
Cathepsin-E Z-Score at 50 μM [5]: −0.1
CC50 [6]: > 100 µM
uPA Z-Score at 50 μM [7]: 0.5
inhibition at 50 µM [8]: 10%
IC50 [1]: 4.25 µM
Cathepsin-D Z-Score at 50 μM [9]: −0.2

O=S(=O)(Nc1ccccc1-c1ccccc1)c1cccs1 [Compound 2]
Plasmin Z-Score at 50 μM [3]: 1.8
tPA Z-Score at 50 μM [4]: 0.5
Cathepsin-E Z-Score at 50 μM [5]: −0.3
CC50 [6]: 62 µM
uPA Z-Score at 50 μM [7]: 0.5
inhibition at 50 µM [8]: 2%
IC50 [1]: 4.3 µM
Cathepsin-D Z-Score at 50 μM [9]: −1.6

O=S(=O)(Nc1cc(Cl)ccc1Oc1ccccc1)c1cccs1 [Compound 3]
Plasmin Z-Score at 50 μM [3]: 2.5
tPA Z-Score at 50 μM [4]: 0.3
Cathepsin-E Z-Score at 50 μM [5]: 0.4
CC50 [6]: 49 µM
selectivity ratio [6]: ~50
uPA Z-Score at 50 μM [7]: 0.5
inhibition at 50 µM [8]: 13%
IC50 [1]: 1 µM
Cathepsin-D Z-Score at 50 μM [9]: 0

O=[N+]([O-])c1ccccc1S(=O)(=O)Nc1cc(Cl)ccc1Oc1ccccc1 [Compound 4]
Plasmin Z-Score at 50 μM [3]: 1.4
tPA Z-Score at 50 μM [4]: 0.4
Cathepsin-E Z-Score at 50 μM [5]: 0.9
CC50 [6]: 47 µM
uPA Z-Score at 50 μM [7]: 1
inhibition at 50 µM [8]: 11%
IC50 [1]: 9.9 µM
Cathepsin-D Z-Score at 50 μM [9]: 0.6

O=S(=O)(Nc1ccccc1C1=NCCc2ccccc21)c1ccc(Cl)cc1 [D]
IC50 [1]: 35.8 µM

O=C(O)CN(CCN(CC(=O)O)CC(=O)O)CC(=O)O [EDTA]
Inhibitory effect against Pla [10]: enhance activity

O=C(O)CN(CCOCCOCCN(CC(=O)O)CC(=O)O)CC(=O)O [EGTA]
Inhibitory effect against Pla [10]: enhance activity

CC(=O)Nc1ccc(S(=O)(=O)Nc2ccccc2Oc2ccccc2)cc1 [E]
IC50 [1]: 50.4 µM

COc1ccc(S(=O)(=O)Nc2ccccc2Oc2ccccc2)c(OC)c1 [F]
IC50 [1]: 52.3 µM

COc1ccc(C)cc1S(=O)(=O)Nc1cc(Cl)ccc1Oc1ccccc1 [G]
IC50 [1]: 84.2 µM

Cc1ccc(S(=O)(=O)Nc2ccccc2C(=O)c2ccccc2)cc1 [H]
IC50 [1]: 100 µM

O=S(=O)(Nc1ccccc1Oc1ccccc1)c1cc(Cl)ccc1Cl [I]
IC50 [1]: 139 µM

NCCCC[C@H](N)C(=O)NCC(=O)O [Lys-Gly] (H-Lys-Gly-OH)
Ki [2]: 5600 µM

NCCCC[C@H](NC(=O)[C@@H](N)CCCCN)C(=O)O [Lys-Lys]
Ki [2]: 4500 µM

CC(C)[C@H](NC(=O)[C@@H](N)CCCCN)C(=O)O [Lys-Val, reference compound] (H-Lys-Val-OH; C-terminus assumed)
Ki [2]: 8400 µM
inhibition at 16000 µM ([1]; read-out: Average inhibition): 60%

CC(C)CC(=O)N[C@H](C(=O)N[C@H](C(=O)N[C@@H](CC(C)C)[C@@H](O)CC(=O)N[C@@H](C)C(=O)N[C@@H](CC(C)C)[C@@H](O)CC(=O)O)C(C)C)C(C)C [pepstatin] (Isovaleryl-VV[Sta]A[Sta]-OH)
Inhibitory effect against Pla [10]: no inhibitory effect
